Results on one compound are retold here after patent US20240307220A1, “Combination Therapy to Treat Temperature Sensitive Mutant Tumors” (H. LEE MOFFITT CANCER CENTER AND RESEARCH INSTITUTE INC., priority 2021, published 2024).

Assay [1] relates to H1299 stably expressing ts p53 mutants. Put plainly: Apoptosis (PARP cleavage) and MTS cell viability in H1299 stably expressing ts p53 mutants treated with CPT. Type of assay: cell-based, human. As for the experimental part: FIGS. 3A to 3D show induction of growth arrest and cell death by p53 ts mutants. […] DNA replication rate was measured by scintillation counting and normalized to cell number. […] PARP cleavage was determined by Western blot. FIGS. 3C and 3D show H1299 stably expressing ts p53 mutants treated with CPT at indicated concentrations for 48 hrs at 37° C. or 32° C. Cell viability was determined by MTS assay. The results are average of 3 experiments (mean±SD).
Western blot. Cells were lysed in lysis buffer (50 mM Tris-HCl pH 8.0, 5 mM EDTA, 150 mM NaCl, 0.5% Nonidet P-40, 1×protease inhibitor cocktail) and centrifuged for 10 minutes at 14,000×g, and the insoluble debris was discarded. Cell lysate (10-50 µg of protein) was fractionated by SDS-PAGE and transferred to Immobilion P filters (Millipore). […] MDM2 was detected using monoclonal antibody 3G9 produced in house. Other markers were detected using commercial antibodies: Actin (Sigma A5441), p53-DO1 (BD Pharmingen #554293), p21 (BD Pharmingen #556430), PUMA (CellSignaling #12450), PARP (BD Pharmingen #556362), p53 pSer15 (CellSignaling #9284), p53 acetyl-Lys382 (CellSignaling #2525).
Cell proliferation and viability assays. DNA replication was analyzed using ^3H-thymidine incorporation assay. […] The incorporated ^3H-thymidine was analyzed by liquid scintillation counting. […]

A further assay deals with GA10-p53KO tumors. The assay is described as follows: GA10-p53KO subcutaneous tumor xenografts in nude mice treated with CPT and hypothermia. The class given is in vivo. Conditions: 32 hr×5 format. The procedure:
FIGS. 7A to 7E show hypothermia cooperates with chemotherapy to induce regression of tumors expressing ts p53. […] CPT (1.5 mg/kg) was given at the beginning of each hypothermia cycle. Average size of tumors was plotted over time (mean±SD). FIG. 7B contains pictures of a GA10 partial response tumor before and after treatment. FIG. 7C is a waterfall plot showing combined results of 3 experiments. Tumors with durable remission are marked as “cured”. FIG. 7D contains individual growth curves of representative GA10 tumors from FIG. 7A that achieved durable remission after treatment. FIG. 7E contains individual growth curves of GA10 tumors from FIG. 7A that relapsed and received re-treatment.
Animal experiment. Animal experiments were reviewed and approved by the University of South Florida IACUC. Athymic female nude mice (6-week old, Athymic Nude-Foxn1nu, Envigo) were injected subcutaneously with 0.1 ml 1:1 slurry of Matrigel (VWR 47743-715) and 1×10^7 cells in PBS at each site. The inoculated mice were housed in a cabinet set to 28° C. (ARIA BIO-C36 ventilated cabinet, TECNIPLAST) to ensure that tumors develop at ˜37° C. […] The mice were kept in the 28° C. cabinet and monitored using infrared thermal imaging camera (FLIR ONE Pro, FLIR® Systems, Inc.) to verify that body temperature was maintained at ˜32° C. […]

On to `CC[C@@]1(O)C(=O)OCc2c1cc1n(c2=O)Cc2cc3ccccc3nc2-1` [CPT, Camptothecin], for which the “apoptosis indicated by PARP cleavage” value in assay [1] (0.5 μM CPT for 48 hrs at 32° C., 1% FBS) was “cooperated with CPT to induce apoptosis”. The “cell viability (MTS assay)” value in assay [1] (CPT for 48 hrs at 32° C.) was “loss of cell viability”. Further, in the assay on GA10-p53KO tumors (CPT 1.5 mg/kg and 32° C. hypothermia), the “GA10-p53KO complete response or durable remission” value was “did not achieve complete response or durable remission”. Besides, the “GA10-p53KO tumor size change” value with GA10-p53KO tumors (p53-independent effects of CPT and hypothermia) is “modest shrinkage”.
